From ChEMBL document CHEMBL1201862, “PubChem BioAssay data set” (2004)
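Five concentrations, 48 hours, 96-well plates. Abbreviation: GI50, concentration required for 50% inhibition of growth.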 Calls of active or inactive are those of the source. No stated cut-off is given here; in the data, active = GI50 up to about 1.1 µM and inactive = higher. Where a SMILES comes first, the peptide text is derived from it. [ ]: non-standard residue; d: D form. The star is where a group is joined. ξ: configuration not given here. ξF = NC(Cc1ccccc1)C(=O)O; Cbz = O=C(OCc1ccccc1)*; Aib = CC(C)(N)C(=O)O; NHNH2 = NN*

Legend:
Assay in all cases: NCI-60 cell line screen, 48 h
CAKI-1 = system: CAKI-1
SF-295 = system: SF-295
OVCAR-4 = system: OVCAR-4
MCF7 = system: MCF7
RPMI-8226 = system: RPMI-8226
SK-MEL-5 = system: SK-MEL-5
SW-620 = system: SW-620
NCI/ADR-RES = system: NCI/ADR-RES
SNB-19 = system: SNB-19
HOP-62 = system: HOP-62
BT-549 = system: BT-549
OVCAR-3 = system: OVCAR-3
COLO 205 = system: COLO 205
HCC 2998 = system: HCC 2998
IGROV-1 = system: IGROV-1
NCI-H460 = system: NCI-H460
TK-10 = system: TK-10
SN12C = system: SN12C
NCI-H522 = system: NCI-H522

Measured: GI50

CC(C)OC(=O)/C=C/C(=O)O/C=C/[N+](=O)[O-]
inactive: CAKI-1 34 µM | SF-295 27.9 µM | OVCAR-4 26.9 µM | MCF7 23 µM | RPMI-8226 15.5 µM | SK-MEL-5 31.6 µM | SW-620 25.4 µM | NCI/ADR-RES 8.55 µM | SNB-19 31.7 µM | HOP-62 34 µM | BT-549 41.8 µM | OVCAR-3 31.7 µM | COLO 205 16.6 µM | HCC 2998 20.5 µM | IGROV-1 31.6 µM | NCI-H460 60.7 µM | TK-10 32.6 µM

C=Cc1nc2nnc(CCCCCCCCc3nnc4nc(C=C)[nH]n34)n2[nH]1
inactive: CAKI-1 > 100 µM | SF-295 62.5 µM | OVCAR-4 83.9 µM | MCF7 80.7 µM | SK-MEL-5 41.6 µM | SW-620 > 100 µM | NCI/ADR-RES 63.1 µM | SNB-19 > 100 µM | HOP-62 > 100 µM | BT-549 > 100 µM | OVCAR-3 > 100 µM | COLO 205 > 100 µM | HCC 2998 75.3 µM | IGROV-1 > 100 µM | NCI-H460 57.8 µM | SN12C > 100 µM | TK-10 > 100 µM

O=C(O)c1nc2ccc(C(F)(F)F)cc2nc1Nc1ccc(F)cc1
inactive: CAKI-1 30 µM | SF-295 11.5 µM | OVCAR-4 22.6 µM | MCF7 23 µM | SK-MEL-5 18 µM | SW-620 23.6 µM | NCI/ADR-RES 20.2 µM | SNB-19 > 10 µM | HOP-62 17.1 µM | BT-549 12.5 µM | OVCAR-3 12.2 µM | COLO 205 19.5 µM | HCC 2998 15.7 µM | IGROV-1 20.7 µM | NCI-H522 6.07 µM | NCI-H460 16.1 µM | SN12C 26.8 µM | TK-10 36.6 µM

O=C(CCc1ccccc1)ON1C(=S)C(c2ccccc2)(c2ccccc2)N=C1Sc1ccccc1
inactive: CAKI-1 74.1 µM | SF-295 31 µM | OVCAR-4 58.1 µM | MCF7 33.7 µM | RPMI-8226 22 µM | SK-MEL-5 37.5 µM | NCI/ADR-RES 33.7 µM | SNB-19 52.7 µM | HOP-62 41.8 µM | BT-549 54 µM | OVCAR-3 60 µM | COLO 205 35.5 µM | HCC 2998 46.6 µM | IGROV-1 6.53 µM | NCI-H460 12.4 µM | SN12C 68.5 µM | TK-10 89.9 µM

CCOC(=O)c1cc(C2(O)CCN(CC(C)CC)C2=O)c(-c2cc(C)no2)[nH]1 (centres undefined)
inactive: CAKI-1 > 100 µM | SF-295 > 100 µM | OVCAR-4 > 100 µM | MCF7 > 100 µM | RPMI-8226 > 100 µM | SK-MEL-5 > 100 µM | SW-620 > 100 µM | NCI/ADR-RES > 100 µM | SNB-19 > 100 µM | HOP-62 > 100 µM | BT-549 > 100 µM | OVCAR-3 > 100 µM | COLO 205 > 100 µM | HCC 2998 > 100 µM | IGROV-1 > 100 µM | NCI-H460 > 100 µM | SN12C > 100 µM

CC(C)(NC(=O)OCc1ccccc1)C(=O)NC(Cc1ccccc1)C(=O)NN (centres undefined) (Cbz-[Aib]-[ξF]-NHNH2)
inactive: CAKI-1 > 100 µM | SF-295 > 100 µM | OVCAR-4 > 100 µM | MCF7 > 100 µM | RPMI-8226 > 100 µM | SK-MEL-5 > 100 µM | SW-620 > 100 µM | NCI/ADR-RES > 100 µM | SNB-19 > 100 µM | HOP-62 > 100 µM | BT-549 > 100 µM | OVCAR-3 > 100 µM | COLO 205 > 100 µM | IGROV-1 > 100 µM | NCI-H522 > 100 µM | NCI-H460 > 100 µM | SN12C > 100 µM | TK-10 > 100 µM

Cc1cc(C)c(S(=O)(=O)N(CCCN)OCCCON(CCCN)S(=O)(=O)c2c(C)cc(C)cc2C)c(C)c1
inactive: CAKI-1 14.2 µM | SF-295 7.66 µM | OVCAR-4 2.29 µM | MCF7 1.82 µM | RPMI-8226 2.38 µM | SK-MEL-5 4.55 µM | SW-620 2.49 µM | NCI/ADR-RES 18.9 µM | SNB-19 1.75 µM | HOP-62 1.91 µM | BT-549 3.1 µM | OVCAR-3 2.03 µM | COLO 205 1.78 µM | IGROV-1 1.98 µM | NCI-H522 1.47 µM | NCI-H460 1.67 µM | SN12C 3.91 µM | TK-10 4.5 µM

CC(C)c1cccc(C(=O)NCCN(C)C)c1[N+](=O)[O-]
inactive: CAKI-1 > 100 µM | SF-295 > 100 µM | MCF7 > 100 µM | SK-MEL-5 > 100 µM | SW-620 > 100 µM | NCI/ADR-RES > 100 µM | SNB-19 > 100 µM | HOP-62 > 100 µM | BT-549 19.5 µM | OVCAR-3 > 100 µM | COLO 205 > 100 µM | HCC 2998 > 100 µM | IGROV-1 > 100 µM | NCI-H522 > 100 µM | NCI-H460 > 100 µM | SN12C > 100 µM | TK-10 > 100 µM
